From patent US20240199623A1 (ILDONG PHARMACEUTICAL CO., LTD., priority 2020, published 2024)
One block for each molecule: values may come before it.

Target: human wild type-CFTR (Homo sapiens, UniProt P13569)
Experiment: Cell-based YFP assay
Parameters: expressed in transfected cells; host or cells: CHO-K1 (Chinese hamster ovary)
Conditions: CHO-K1 cells expressing human wild type-CFTR and YFP-H148Q/I152L; forskolin 20 μM = 100% activity; read-out: Cell-based YFP Assay (EC50) Concentration Range
Summary of the method: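 I⁻-driven YFP fluorescence quenching at 37 °C: 2 s baseline, addition of 140 mM iodide solution, then 14 s of readings at 0.4 s intervals. Cells were CHO-K1 expressing human wild-type CFTR plus YFP-H148Q/I152L. EC50 derived from averaged triplicates.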

human wild type-CFTR, sequence (P13569 whole entry): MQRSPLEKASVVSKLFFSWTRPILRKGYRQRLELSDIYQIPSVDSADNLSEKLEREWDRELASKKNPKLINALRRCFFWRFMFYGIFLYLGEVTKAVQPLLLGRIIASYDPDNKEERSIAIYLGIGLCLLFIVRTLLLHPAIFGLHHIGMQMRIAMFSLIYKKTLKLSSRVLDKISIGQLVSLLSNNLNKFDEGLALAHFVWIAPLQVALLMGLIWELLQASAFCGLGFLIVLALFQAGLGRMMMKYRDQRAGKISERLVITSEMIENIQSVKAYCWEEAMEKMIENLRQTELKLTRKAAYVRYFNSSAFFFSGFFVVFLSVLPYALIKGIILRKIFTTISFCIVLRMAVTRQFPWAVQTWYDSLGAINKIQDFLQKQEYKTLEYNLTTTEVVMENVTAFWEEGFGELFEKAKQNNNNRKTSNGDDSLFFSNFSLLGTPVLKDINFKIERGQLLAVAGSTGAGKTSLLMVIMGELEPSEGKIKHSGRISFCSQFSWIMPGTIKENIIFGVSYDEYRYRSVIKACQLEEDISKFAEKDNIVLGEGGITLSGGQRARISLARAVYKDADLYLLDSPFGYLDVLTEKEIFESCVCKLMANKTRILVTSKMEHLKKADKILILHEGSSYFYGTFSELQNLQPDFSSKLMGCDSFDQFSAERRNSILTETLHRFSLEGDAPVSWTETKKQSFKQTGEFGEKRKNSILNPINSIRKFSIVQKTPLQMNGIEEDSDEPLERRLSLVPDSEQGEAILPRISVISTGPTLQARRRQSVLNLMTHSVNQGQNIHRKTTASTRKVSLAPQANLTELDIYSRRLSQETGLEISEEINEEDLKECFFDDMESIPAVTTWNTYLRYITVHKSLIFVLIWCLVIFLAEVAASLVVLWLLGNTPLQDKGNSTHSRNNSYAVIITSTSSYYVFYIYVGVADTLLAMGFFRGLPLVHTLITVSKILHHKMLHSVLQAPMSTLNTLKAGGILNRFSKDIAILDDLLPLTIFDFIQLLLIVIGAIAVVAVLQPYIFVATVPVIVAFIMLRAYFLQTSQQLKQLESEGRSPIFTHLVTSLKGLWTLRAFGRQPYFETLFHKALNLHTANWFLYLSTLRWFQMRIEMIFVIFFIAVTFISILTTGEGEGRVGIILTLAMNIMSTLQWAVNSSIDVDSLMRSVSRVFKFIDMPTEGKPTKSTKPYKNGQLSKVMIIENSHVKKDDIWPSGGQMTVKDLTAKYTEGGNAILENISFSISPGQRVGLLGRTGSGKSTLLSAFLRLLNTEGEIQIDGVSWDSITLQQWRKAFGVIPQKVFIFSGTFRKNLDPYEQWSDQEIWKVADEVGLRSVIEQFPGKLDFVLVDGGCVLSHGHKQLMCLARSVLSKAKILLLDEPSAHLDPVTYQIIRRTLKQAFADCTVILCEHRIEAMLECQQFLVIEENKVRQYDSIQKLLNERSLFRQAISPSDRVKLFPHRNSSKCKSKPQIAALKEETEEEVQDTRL

EC50: 200 to 2000 nM
SMILES: CCOC(=O)[C@H]1CC[C@H](NC(=O)c2cc3nccc(-c4ccc(OC)c(OC)c4)n3n2)CC1 [Compound 330, ethyl (1R,4R)-4-(7-(3,4-dimethoxyphenyl)pyrazolo [1,5-a]pyrimidine-2-carboxamido)cyclohexane-1-carboxylate]

EC50: ≥ 2000 nM
SMILES: COc1ccc(-c2ccnc3cc(C(=O)NC45CC(C(N)=O)(C4)C5)nn23)cc1OC [Compound 95, N-(3-carbamoylbicyclo [1.1.1]pentan-1-yl)-7-(3,4-dimethoxyphenyl) pyrazolo[1,5-a]pyrimidine-2-carboxamide]

EC50: ≥ 2000 nM
SMILES: COc1ccc(-c2ccnc3cc(C(=O)N[C@H]4CC[C@H](C(=O)N5CCNCC5)CC4)nn23)cc1OC [Compound 82, 7-(3,4-dimethoxyphenyl)-N-((1R,4R)-4-(piperazine-1-carbonyl)cyclohexyl) pyrazolo[1,5-a]pyrimidine-2-carboxamide]

EC50: ≥ 2000 nM
SMILES: COC(=O)c1ccc(NC(=O)c2cc3nccc(-c4ccc(OC)c(OC)c4)n3n2)c(Cl)c1 [Compound 104, methyl 3-chloro-4-(7-(3,4-dimethoxyphenyl)pyrazolo [1,5-a]pyrimidine-2-carboxamido)benzoate]

The remaining lines, values behind:

SMILES: COc1ccc(-c2ccnc3cc(C(=O)N4CCN(C(=O)c5ccc(F)cc5)[C@@H](C)C4)nn23)cc1OC [Compound 350, (S)-(7-(3,4-dimethoxyphenyl)pyrazolo[1,5-a]pyrimidin-2-yl)(4-(4-fluorobenzoyl)-3-methylpiperazin-1-yl) methanone]
EC50: < 200 nM

SMILES: COc1ccc(-c2ccnc3cc(C(=O)N4CCCc5cc(C(=O)N6CCOCC6)ccc54)nn23)cc1OC [Compound 236, (7-(3,4-dimethoxyphenyl)pyrazolo[1,5-a]pyrimidin-2-yl)(6-(morpholine-4-carbonyl)-3,4-dihydroquinolin-1(2H)-yl)methanone]
EC50: ≥ 2000 nM

SMILES: COc1ccc(-c2ccnc3cc(C(=O)N4CCN(C(=O)c5ccccc5F)[C@@H](C)C4)nn23)cc1OC [Compound 368, (S)-(7-(3,4-dimethoxyphenyl)pyrazolo[1,5-a]pyrimidin-2-yl)(4-(2-fluorobenzoyl)-3-methylpiperazin-1-yl)methanone]
EC50: < 200 nM

SMILES: COc1ccc(-c2ccnc3cc(C(=O)Nc4ccc(C(=O)N5CCN(C)CC5)cc4C)nn23)cc1OC [Compound 128, 7-(3,4-dimethoxyphenyl)-N-(2-methyl-4-(4-methylpiperazine-1-carbonyl)phenyl)pyrazolo [1,5-a]pyrimidine-2-carboxamide]
EC50: < 200 nM

SMILES: CCOc1ccc(NC(=O)c2cc3nccc(-c4ccccc4)n3n2)cc1 [Compound 300, N-(4-ethoxyphenyl)-7-phenylpyrazolo[1,5-a]pyrimidine-2-carboxamide]
EC50: ≥ 2000 nM

SMILES: COC(=O)c1ccc(NC(=O)c2cc3nccc(-c4ccc(Cl)c(Cl)c4)n3n2)cc1 [Compound 40, methyl 4-(7-(3,4-dichlorophenyl)pyrazolo [1,5-a]pyrimidine-2-carboxamido) benzoate]
EC50: ≥ 2000 nM

SMILES: CCOc1ccc(NC(=O)c2cc3nccc(-c4cc(OC)cc(OC)c4)n3n2)cc1 [Compound 315, 7-(3,5-dimethoxyphenyl)-N-(4-ethoxyphenyl)pyrazolo [1,5-a]pyrimidine-2-carboxamide]
EC50: ≥ 2000 nM

SMILES: COc1ccc(-c2ccnc3cc(C(=O)Nc4ccc(C(=O)OCCN5CCN(C(=O)OC(C)(C)C)CC5)cc4)nn23)cc1OC [Compound 275, tert-butyl 4-(2-((4-(7-(3,4-dimethoxyphenyl)pyrazolo [1,5-a]pyrimidine-2-carboxamido)benzoyl)oxy)ethyl)piperazine-1-carboxylate]
EC50: < 200 nM

SMILES: COc1ccc(NC(=O)c2cc3nccc(-c4ccc(OC)c(OC)c4)n3n2)c(F)c1 [Compound 325, 7-(3,4-dimethoxyphenyl)-N-(2-fluoro-4-methoxyphenyl)pyrazolo [1,5-a]pyrimidine-2-carboxamide]
EC50: < 200 nM
